PMC5218480 (PLoS ONE, 2017)

Test system: MV-4-11 cells
Assay: Gene expression microarray analysis (Affymetrix PrimeView) and GSEA
Format: cell-based, human
Set-up: RFU PODN (11730768_x_at) / Fold change /veh PODN (11730768_x_at) / RFU LINC00158 (11744669_a_at) / Fold change /veh LINC00158 (11744669_a_at) / RFU DUSP10 (11751237_a_at) / Fold change /veh DUSP10 (11751237_a_at) / RFU ID3 (11757404_x_at) / Fold change /veh ID3 (11757404_x_at) / RFU PLEKHG5 (11737974_s_at) / Fold change /veh PLEKHG5 (11737974_s_at) / RFU LRRC4B (11730491_at) / Fold change /veh LRRC4B (11730491_at) / RFU GIMAP4 (11747438_a_at) / Fold change /veh GIMAP4 (11747438_a_at) / RFU KRT8 (11758183_x_at) / Fold change /veh KRT8 (11758183_x_at) / RFU CNN1 (11734310_a_at) / Fold change /veh CNN1 (11734310_a_at) / RFU VPS37D (11726825_at) / Fold change /veh VPS37D (11726825_at) / RFU C10orf10 (11716522_x_at) / Fold change /veh C10orf10 (11716522_x_at) / RFU KIR2DL2 /// KIR2DL4 /// KIR2DL5A /// KIR2DL5B /// KIR2DS1 /// KIR2DS2 /// KIR2DS3 /// KIR2DS4 /// KIR3DL3 /// KIR3DL3 /// KIR3DS1 (11738374_at) / Fold change /veh KIR2DL2 /// KIR2DL4 /// KIR2DL5A /// KIR2DL5B /// KIR2DS1 /// KIR2DS2 /// KIR2DS3 /// KIR2DS4 /// KIR3DL3 /// KIR3DL3 /// KIR3DS1 (11738374_at) / RFU C1QL1 (11718748_at) / Fold change /veh C1QL1 (11718748_at) / RFU TMPRSS4 (11747572_a_at) / Fold change /veh TMPRSS4 (11747572_a_at) / RFU HAMP (11756126_x_at) / Fold change /veh HAMP (11756126_x_at) / RFU RNFT2 (11725882_a_at) / Fold change /veh RNFT2 (11725882_a_at) / RFU NR4A2 (11747474_a_at) / Fold change /veh NR4A2 (11747474_a_at) / RFU ABCC12 (11746883_a_at) / Fold change /veh ABCC12 (11746883_a_at) / RFU TMEM136 (11760407_x_at) / Fold change /veh TMEM136 (11760407_x_at) / RFU CLDN22 /// WWC2 (11732394_at) / Fold change /veh CLDN22 /// WWC2 (11732394_at) / RFU HLA-DPB1 (11760878_x_at) / Fold change /veh HLA-DPB1 (11760878_x_at) / RFU SPINT1 (11716480_a_at) / Fold change /veh SPINT1 (11716480_a_at) / RFU GAP43 (11754022_s_at) / Fold change /veh GAP43 (11754022_s_at) / RFU A4GNT (11735810_at) / Fold change /veh A4GNT (11735810_at) / RFU PRB3 (11715151_x_at) / Fold change /veh PRB3 (11715151_x_at) / RFU TUBB4B (11761932_at) / Fold change /veh TUBB4B (11761932_at) / RFU CAPN14 (11732068_a_at) / Fold change /veh CAPN14 (11732068_a_at) / RFU TMCC2 (11721928_a_at) / Fold change /veh TMCC2 (11721928_a_at) / RFU IRGQ (11745062_a_at) / Fold change /veh IRGQ (11745062_a_at) / RFU FAM174B (11720279_a_at) / Fold change /veh FAM174B (11720279_a_at) / RFU TMPRSS4 (11748680_a_at) / Fold change /veh TMPRSS4 (11748680_a_at) / RFU FAM212B (11763350_a_at) / Fold change /veh FAM212B (11763350_a_at) / RFU PLEKHG5 (11743358_a_at) / Fold change /veh PLEKHG5 (11743358_a_at) / RFU ZSCAN30 (11745921_a_at) / Fold change /veh ZSCAN30 (11745921_a_at) / RFU CMKLR1 (11741424_a_at) / Fold change /veh CMKLR1 (11741424_a_at) / RFU LOC101060620 /// MAPK8IP1 (11723275_at) / Fold change /veh LOC101060620 /// MAPK8IP1 (11723275_at) / RFU SPTSSB (11747773_x_at) / Fold change /veh SPTSSB (11747773_x_at) / RFU PRSS12 (11739890_at) / Fold change /veh PRSS12 (11739890_at) / RFU BIN1 (11741810_x_at) / Fold change /veh BIN1 (11741810_x_at) / RFU WNT11 (11732464_a_at) / Fold change /veh WNT11 (11732464_a_at) / RFU C10orf10 (11716521_a_at) / Fold change /veh C10orf10 (11716521_a_at) / RFU C5orf56 (11738089_at) / Fold change /veh C5orf56 (11738089_at) / RFU CYB561 (11721691_x_at) / Fold change /veh CYB561 (11721691_x_at) / RFU ANKRD19P (11752326_a_at) / Fold change /veh ANKRD19P (11752326_a_at) / RFU OR2T12 /// OR2T33 /// OR2T8 (11738714_s_at) / Fold change /veh OR2T12 /// OR2T33 /// OR2T8 (11738714_s_at) / RFU VCAN (11748164_a_at) / Fold change /veh VCAN (11748164_a_at) / RFU JSRP1 (11732532_at) / Fold change /veh JSRP1 (11732532_at) / RFU KRTAP10-11 (11738290_x_at) / Fold change /veh KRTAP10-11 (11738290_x_at) / RFU MYO3A (11730013_a_at) / Fold change /veh MYO3A (11730013_a_at) / RFU EBF3 (11725865_a_at) / Fold change /veh EBF3 (11725865_a_at) / RFU CAMK2N1 (11719241_x_at) / Fold change /veh CAMK2N1 (11719241_x_at) / RFU C5orf56 (11738088_a_at) / Fold change /veh C5orf56 (11738088_a_at) / RFU OLFML3 (11715873_a_at) / Fold change /veh OLFML3 (11715873_a_at) / RFU LOC100653217 /// NTM (11731650_a_at) / Fold change /veh LOC100653217 /// NTM (11731650_a_at) / RFU MAPK11 (11762145_a_at) / Fold change /veh MAPK11 (11762145_a_at) / RFU FIZ1 (11724087_x_at) / Fold change /veh FIZ1 (11724087_x_at) / RFU OASL (11726364_x_at) / Fold change /veh OASL (11726364_x_at) / RFU SOX15 (11748057_x_at) / Fold change /veh SOX15 (11748057_x_at) / RFU CD79A (11719716_a_at) / Fold change /veh CD79A (11719716_a_at) / RFU HIST1H1D (11736915_at) / Fold change /veh HIST1H1D (11736915_at) / RFU CASKIN2 (11723855_a_at) / Fold change /veh CASKIN2 (11723855_a_at) / RFU LOC730098 (11760151_x_at) / Fold change /veh LOC730098 (11760151_x_at) / RFU OR4N2 (11742367_at) / Fold change /veh OR4N2 (11742367_at) / RFU PRRT2 (11749266_a_at) / Fold change /veh PRRT2 (11749266_a_at) / RFU SNX32 (11753110_a_at) / Fold change /veh SNX32 (11753110_a_at) / RFU CDHR5 (11726645_a_at) / Fold change /veh CDHR5 (11726645_a_at) / RFU RCAN1 (11760418_a_at) / Fold change /veh RCAN1 (11760418_a_at) / RFU FAM167A (11723789_a_at) / Fold change /veh FAM167A (11723789_a_at) / RFU FAM26E (11764081_at) / Fold change /veh FAM26E (11764081_at) / RFU ISYNA1 (11749810_s_at) / Fold change /veh ISYNA1 (11749810_s_at) / RFU ACY1 (11761880_at) / Fold change /veh ACY1 (11761880_at) / RFU 11764098_at / Fold change /veh 11764098_at / RFU SAMD14 (11745864_x_at) / Fold change /veh SAMD14 (11745864_x_at) / RFU NPB (11741838_a_at) / Fold change /veh NPB (11741838_a_at) / RFU TMPRSS6 (11731388_a_at) / Fold change /veh TMPRSS6 (11731388_a_at) / RFU KRTAP10-2 (11738614_at) / Fold change /veh KRTAP10-2 (11738614_at) / RFU ARHGAP8 /// PRR5-ARHGAP8 (11727945_x_at) / Fold change /veh ARHGAP8 /// PRR5-ARHGAP8 (11727945_x_at) / RFU KRTAP5-7 /// NADSYN1 (11734609_at) / Fold change /veh KRTAP5-7 /// NADSYN1 (11734609_at) / RFU RASL12 (11751679_a_at) / Fold change /veh RASL12 (11751679_a_at) / RFU CDKN2B (11736163_a_at) / Fold change /veh CDKN2B (11736163_a_at) / RFU PRF1 (11729649_at) / Fold change /veh PRF1 (11729649_at) / RFU, ZNF638 /// ZNF638-IT1 / Fold change vs veh, ZNF638 /// ZNF638-IT1 / RFU, PANK3 / Fold change vs veh, PANK3 / RFU, SH3YL1 / Fold change vs veh, SH3YL1 / RFU, ZEB2 / Fold change vs veh, ZEB2 / RFU, NRIP1 / Fold change vs veh, NRIP1 / RFU, PTTG1IP / Fold change vs veh, PTTG1IP / RFU, CAPN2 / Fold change vs veh, CAPN2 / RFU, MED14 / Fold change vs veh, MED14 / RFU, SNORA58 / Fold change vs veh, SNORA58 / RFU, C1orf63 / Fold change vs veh, C1orf63 / RFU, LRRFIP1 / Fold change vs veh, LRRFIP1 / RFU, NDUFAF7 / Fold change vs veh, NDUFAF7 / RFU, SLC12A2 / Fold change vs veh, SLC12A2 / RFU, IBTK / Fold change vs veh, IBTK / RFU, ESF1 / Fold change vs veh, ESF1 / Fold change vs veh, TMEM50B / RFU, TAOK1 / Fold change vs veh, TAOK1 / RFU, ACBD3 / Fold change vs veh, ACBD3 / RFU, TMA16 / Fold change vs veh, TMA16 / RFU, RWDD3 / Fold change vs veh, RWDD3 / RFU, BCAT1 / Fold change vs veh, BCAT1 / RFU, EDEM3 / Fold change vs veh, EDEM3 / RFU, TMEM33 / Fold change vs veh, TMEM33 / RFU, WDR75 / Fold change vs veh, WDR75 / RFU, AHCTF1 / Fold change vs veh, AHCTF1 / RFU, TFRC / Fold change vs veh, TFRC / RFU, ZDHHC17 / Fold change vs veh, ZDHHC17 / RFU, NOM1 / Fold change vs veh, NOM1 / RFU, ARL8B / Fold change vs veh, ARL8B / RFU, ZBTB11 / Fold change vs veh, ZBTB11 / RFU, TAMM41 / Fold change vs veh, TAMM41 / RFU, KIAA1704 /// LOC100996395 / Fold change vs veh, KIAA1704 /// LOC100996395 / RFU, ING1 / Fold change vs veh, ING1 / RFU, TRMT61B / Fold change vs veh, TRMT61B / RFU, FUBP3 / Fold change vs veh, FUBP3 / RFU, TP53 / Fold change vs veh, TP53 / RFU, TNKS2 / Fold change vs veh, TNKS2 / RFU, ZFP14 / Fold change vs veh, ZFP14 / RFU, ACTR2 / Fold change vs veh, ACTR2 / RFU, PPP3R1 / Fold change vs veh, PPP3R1 / RFU, PIK3R1 / Fold change vs veh, PIK3R1 / RFU, HNRNPA1 / Fold change vs veh, HNRNPA1 / RFU, RNF170 / Fold change vs veh, RNF170 / RFU, ZNF28 / Fold change vs veh, ZNF28 / RFU, RNGTT / Fold change vs veh, RNGTT / RFU, OGT / Fold change vs veh, OGT / RFU, BRD1 / Fold change vs veh, BRD1 / RFU, MARS / Fold change vs veh, MARS / RFU, ZNF655 / Fold change vs veh, ZNF655 / RFU, FAHD1 / Fold change vs veh, FAHD1 / RFU, BDP1 / Fold change vs veh, BDP1 / RFU, LRRCC1 / Fold change vs veh, LRRCC1 / RFU, ARID1A / Fold change vs veh, ARID1A / RFU, ZNF146 / Fold change vs veh, ZNF146 / RFU, ZNF330 / Fold change vs veh, ZNF330 / RFU, GPN3 / Fold change vs veh, GPN3 / RFU, C9orf123 / Fold change vs veh, C9orf123 / RFU, N4BP2L2 / Fold change vs veh, N4BP2L2 / RFU, ARFIP1 / Fold change vs veh, ARFIP1 / RFU, FAM179B / Fold change vs veh, FAM179B / RFU, BCL10 / Fold change vs veh, BCL10 / RFU, UHRF1BP1L / Fold change vs veh, UHRF1BP1L / RFU, BET1 / Fold change vs veh, BET1 / RFU, CNOT2 / Fold change vs veh, CNOT2 / RFU, ZNF268 / Fold change vs veh, ZNF268 / Fold change vs veh, ZNF507 / RFU, DGCR2 / Fold change vs veh, DGCR2 / RFU, WDSUB1 / Fold change vs veh, WDSUB1 / Fold change vs veh, HSP90B1 /// MIR3652 / RFU, ADSS / Fold change vs veh, ADSS / RFU, GK / Fold change vs veh, GK / RFU, ZNF148 / Fold change vs veh, ZNF148 / RFU, TAF9 / Fold change vs veh, TAF9 / RFU, SLC1A5 / Fold change vs veh, SLC1A5 / RFU, SLMO2 / Fold change vs veh, SLMO2 / RFU, ABCC4 / Fold change vs veh, ABCC4 / RFU, LOC101060439 /// RAP1B / Fold change vs veh, LOC101060439 /// RAP1B / RFU, RFX7 / Fold change vs veh, RFX7 / RFU, GTPBP10 / Fold change vs veh, GTPBP10 / RFU, CNEP1R1 / Fold change vs veh, CNEP1R1 / RFU, BIVM-ERCC5 /// ERCC5 / Fold change vs veh, BIVM-ERCC5 /// ERCC5 / RFU, ILF3 / Fold change vs veh, ILF3 / RFU 11762660_at / Fold change /veh 11762660_at / RFU VCAN (11757783_s_at) / Fold change /veh VCAN (11757783_s_at) / RFU DDX43 (11728927_at) / Fold change /veh DDX43 (11728927_at) / RFU KRT8 (11758188_x_at) / Fold change /veh KRT8 (11758188_x_at) / RFU NKD1 (11759106_at) / Fold change /veh NKD1 (11759106_at) / RFU SRD5A1 (11742802_a_at) / Fold change /veh SRD5A1 (11742802_a_at) / RFU TPSAB1 /// TPSB2 (11721975_s_at) / Fold change /veh TPSAB1 /// TPSB2 (11721975_s_at) / RFU GSTM3 (11746129_a_at) / Fold change /veh GSTM3 (11746129_a_at) / RFU IL23R (11737362_x_at) / Fold change /veh IL23R (11737362_x_at) / RFU TMEM51 (11727254_a_at) / Fold change /veh TMEM51 (11727254_a_at) / RFU PIWIL2 (11732686_x_at) / Fold change /veh PIWIL2 (11732686_x_at) / RFU ORM1 (11744905_x_at) / Fold change /veh ORM1 (11744905_x_at) / RFU CCDC152 (11743942_at) / Fold change /veh CCDC152 (11743942_at) / RFU ECM1 (11717891_a_at) / Fold change /veh ECM1 (11717891_a_at) / RFU IL23R (11748794_a_at) / Fold change /veh IL23R (11748794_a_at) / RFU TNFAIP8L3 (11732012_x_at) / Fold change /veh TNFAIP8L3 (11732012_x_at) / RFU MBOAT4 (11741988_at) / Fold change /veh MBOAT4 (11741988_at) / RFU 11764193_at / Fold change /veh 11764193_at / RFU TMEM53 (11763286_at) / Fold change /veh TMEM53 (11763286_at) / RFU MAGEB2 (11727129_at) / Fold change /veh MAGEB2 (11727129_at) / RFU TMEM200A (11744735_a_at) / Fold change /veh TMEM200A (11744735_a_at) / RFU CCDC152 (11751479_a_at) / Fold change /veh CCDC152 (11751479_a_at) / RFU FAM211A (11726209_a_at) / Fold change /veh FAM211A (11726209_a_at) / RFU RGS16 (11746705_a_at) / Fold change /veh RGS16 (11746705_a_at) / RFU VCAN (11755009_s_at) / Fold change /veh VCAN (11755009_s_at) / RFU RHOB (11743442_s_at) / Fold change /veh RHOB (11743442_s_at) / RFU RGS16 (11720943_a_at) / Fold change /veh RGS16 (11720943_a_at) / RFU RGS16 (11720944_at) / Fold change /veh RGS16 (11720944_at) / RFU, VPS4B / Fold change vs veh, VPS4B / RFU, CREB1 / Fold change vs veh, CREB1 / RFU, DNAJC13 / Fold change vs veh, DNAJC13 / RFU, GNAQ / Fold change vs veh, GNAQ / RFU, CDK5R1 / Fold change vs veh, CDK5R1 / RFU, ZRANB3 / Fold change vs veh, ZRANB3 / RFU, CUL4A / Fold change vs veh, CUL4A / RFU, CCNY / Fold change vs veh, CCNY / RFU, UFL1 / Fold change vs veh, UFL1 / RFU, COG3 / Fold change vs veh, COG3 / RFU, DIAPH2 / Fold change vs veh, DIAPH2 / RFU, SKA2 / Fold change vs veh, SKA2 / RFU, AFF3 / Fold change vs veh, AFF3 / RFU, LMF1 / Fold change vs veh, LMF1 / RFU, IPO11 / Fold change vs veh, IPO11 / RFU, DFFB / Fold change vs veh, DFFB / RFU, FOXP1 / Fold change vs veh, FOXP1 / RFU, CARD8 / Fold change vs veh, CARD8 / RFU, STRN3 / Fold change vs veh, STRN3 / RFU, ADK / Fold change vs veh, ADK / RFU, RASSF2 / Fold change vs veh, RASSF2 / RFU, WIPF1 / Fold change vs veh, WIPF1 / RFU, LARP1B / Fold change vs veh, LARP1B / RFU, RASA1 / Fold change vs veh, RASA1 / RFU, RB1 / Fold change vs veh, RB1 / RFU, PPFIA1 / Fold change vs veh, PPFIA1 / RFU, MAT2A / Fold change vs veh, MAT2A / RFU, CCT5 / Fold change vs veh, CCT5 / RFU, WDR92 / Fold change vs veh, WDR92 / RFU, CUX1 / Fold change vs veh, CUX1 / RFU, TTC7A / Fold change vs veh, TTC7A / RFU, TMEM135 / Fold change vs veh, TMEM135 / RFU, DEPTOR / Fold change vs veh, DEPTOR / RFU, CPM / Fold change vs veh, CPM / RFU, DNAJB6 / Fold change vs veh, DNAJB6 / RFU, CACNA2D3 / Fold change vs veh, CACNA2D3 / RFU, DTX4 / Fold change vs veh, DTX4 / RFU, TFCP2 / Fold change vs veh, TFCP2 / RFU, GMCL1 /// GMCL1P1 / Fold change vs veh, GMCL1 /// GMCL1P1 / RFU, AEBP2 / Fold change vs veh, AEBP2 / RFU, SNHG1 /// SNORD22 /// SNORD25 /// SNORD26 /// SNORD27 /// SNORD28 /// SNORD29 /// SNORD31 / Fold change vs veh, SNHG1 /// SNORD22 /// SNORD25 /// SNORD26 /// SNORD27 /// SNORD28 /// SNORD29 /// SNORD31 / Fold change (Aza/veh), C12orf56 (ProbeSet 11735607_a_at) / Fold change (ACY-1035/veh), C12orf56 (ProbeSet 11735607_a_at) / Fold change (Aza/veh), FGFR1OP (ProbeSet 11751329_s_at) / Fold change (ACY-1035/veh), FGFR1OP (ProbeSet 11751329_s_at) / Fold change (Aza/veh), VPS36 (ProbeSet 11739960_a_at) / Fold change (ACY-1035/veh), VPS36 (ProbeSet 11739960_a_at) / RFU SYPL1 (11715823_x_at) / Fold change /veh SYPL1 (11715823_x_at) / RFU IGFBP7 (11715501_s_at) / Fold change /veh IGFBP7 (11715501_s_at) / RFU REEP3 (11722064_at) / Fold change /veh REEP3 (11722064_at) / RFU IGLL1 (11728026_x_at) / Fold change /veh IGLL1 (11728026_x_at): dose or concentration left out as unconfirmed
Conditions: ProbeSet 11725901_x_at; LIST B

## Nc1ccc(-c2cccs2)cc1NC(=O)c1ccc2c(c1)cc(C1CC1)n2CCN1CCOCC1 [ACY-1035]
  RFU, RWDD3: 19.72 RFU
